Each structure is given as a SMILES string.

This assay deals with T1, Hsp60β (Sulfolobus acidocaldarius, UniProt Q9V2T4).
T1 sequence (Q9V2T4 1-553): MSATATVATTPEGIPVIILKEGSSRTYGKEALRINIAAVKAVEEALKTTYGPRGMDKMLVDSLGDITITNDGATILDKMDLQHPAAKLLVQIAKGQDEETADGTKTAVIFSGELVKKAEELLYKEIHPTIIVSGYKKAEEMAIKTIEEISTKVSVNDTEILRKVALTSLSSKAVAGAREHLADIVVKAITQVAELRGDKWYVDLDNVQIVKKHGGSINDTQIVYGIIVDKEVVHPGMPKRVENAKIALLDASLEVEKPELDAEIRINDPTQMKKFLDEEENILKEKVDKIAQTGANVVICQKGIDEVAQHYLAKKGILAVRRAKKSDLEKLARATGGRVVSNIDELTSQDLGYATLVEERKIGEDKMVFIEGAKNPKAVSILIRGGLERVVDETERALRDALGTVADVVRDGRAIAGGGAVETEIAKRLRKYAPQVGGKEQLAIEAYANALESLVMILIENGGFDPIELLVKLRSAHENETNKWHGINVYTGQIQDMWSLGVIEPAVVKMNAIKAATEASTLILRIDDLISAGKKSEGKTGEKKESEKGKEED
As to the kind of experiment: FRET titration, tryptophan donor to MANT acceptor. Format: binding.

By Kd is commonly meant the constant that tells how readily two partners part at equilibrium. The molecule `CNc1ccccc1C(=O)O[C@H]1[C@@H](O)[C@H](n2cnc3c(N)ncnc32)O[C@@H]1CO[P@@](=O)(O)O[P@](=O)(O)OP(=O)(O)O` [MANT-ATP, 2’/3’-(N-methyl-anthraniloyl)-adenosine-5’-triphosphate] returned a Kd of 77.2 ± 3.8 µM.

For the origin of these results see publication doi:10.1101/2024.01.14.575554v1 (biorxiv, 2024).
